Assay type in all cases: functional
The species named for assay [1] is Homo sapiens. The assay is described as follows: Platelets binding activity relative to heparin was evaluated by competitive binding assay using [3H]-labeled heparin at concentration ~1000 uM.
The species named for assay [2] is Homo sapiens. The assay is described as follows: Platelets binding activity relative to heparin was evaluated by competitive binding assay using [3H]-labeled heparin at concentration ~400 uM.
For assay [3], the species on record is Homo sapiens. The assay is described as follows: Platelets binding activity relative to heparin was evaluated by competitive binding assay using [3H]-labeled heparin at concentration ~80 uM.
The species named for assay [4] is Homo sapiens. The assay is described as follows: Platelets binding activity relative to heparin was evaluated by competitive binding assay using [3H]-labeled heparin at concentration 0.001 uM.
The species entered for assay [5] is Homo sapiens. The experiment in a line: Platelets binding activity relative to heparin was evaluated by competitive binding assay using [3H]-labeled heparin at concentration ~1.2 uM.
For assay [6], the species on record is Homo sapiens. The experiment in a line: Platelets binding activity relative to heparin was evaluated by competitive binding assay using [3H]-labeled heparin at concentration ~60 uM.
Assay [7] is filed under the species Homo sapiens. The experiment in a line: Platelets binding activity relative to heparin was evaluated by competitive binding assay using [3H]-labeled heparin at concentration ~1.9 uM.
The species entered for assay [8] is Homo sapiens. The experiment in a line: Platelets binding activity relative to heparin was evaluated by competitive binding assay using [3H]-labeled heparin at concentration ~50 uM.

Each structure is given as a SMILES string.

For the compound `CO[C@H]1O[C@H](COS(=O)(=O)[O-])[C@@H](O[C@H]2O[C@H](C(=O)[O-])[C@@H](OC)[C@H](O)[C@H]2OS(=O)(=O)[O-])[C@H](O)[C@H]1NS(=O)(=O)[O-].[Na+].[Na+].[Na+].[Na+]`, the Binding amounted to 97% in assay [1]; 96% in assay [2]; 97% in assay [3]; 115% in assay [4]; 96% in assay [5].

With `CO[C@H]1O[C@H](CO)[C@@H](O[C@H]2O[C@H](C(=O)[O-])[C@@H](OC3O[C@H](COS(=O)(=O)[O-])[C@@H](OC)[C@H](O)[C@H]3NS(=O)(=O)[O-])[C@H](O)[C@H]2OS(=O)(=O)[O-])[C@H](O)[C@H]1NS(=O)(=O)[O-].[Na+].[Na+].[Na+].[Na+].[Na+]` (stereo not given in full), the Binding in assay [1] was found to be 110%; in assay [2], 110%; in assay [6], 105%; in assay [5] it was 100%; in assay [7], 100%.

`CO[C@H]1O[C@H](COS(=O)(=O)[O-])[C@@H](O[C@H]2O[C@H](C(=O)[O-])[C@@H](O[C@H]3O[C@H](COS(=O)(=O)[O-])[C@@H](OC)[C@H](O)[C@H]3NS(=O)(=O)[O-])[C@H](O)[C@H]2OS(=O)(=O)[O-])[C@H](O)[C@H]1NS(=O)(=O)[O-].[Na+].[Na+].[Na+].[Na+].[Na+].[Na+]`: the Binding in assay [1] worked out at 97%; in assay [2] it was 100%; in assay [8], 105%; in assay [5], 105%; in assay [7], 105%.

Turning to `CO[C@@H]1O[C@H](C(=O)[O-])[C@@H](O[C@H]2O[C@H](COS(=O)(=O)[O-])[C@@H](OC)[C@H](OS(=O)(=O)[O-])[C@H]2NS(=O)(=O)[O-])[C@H](O)[C@H]1OS(=O)(=O)[O-].[Na+].[Na+].[Na+].[Na+].[Na+]`, the Binding came out at 75% in assay [1]; 115% in assay [2]; 100% in assay [3]; 100% in assay [5]; 98% in assay [7].
